Measured values: ChEMBL document CHEMBL1201862, “PubChem BioAssay data set” (2004)
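Test compounds were applied to cells in 96-well plates for 48 hours at 5 doses. GI50 = concentration required for 50% inhibition of growth.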 Calls of active or inactive are those of the source. Rule as the data show it: active = GI50 up to about 1.1 µM and inactive = higher.

Legend:
Assay in all cases: inhibition of tumour cell growth, NCI panel, 48 h
[1] = tested on: A498
[2] = tested on: CAKI-1
[3] = tested on: COLO 205
[4] = tested on: HCC 2998
[5] = tested on: IGROV-1
[6] = tested on: LOX IMVI
[7] = tested on: LXFL 529
[8] = tested on: M14
[9] = tested on: NCI-H522
[10] = tested on: OVCAR-4
[11] = tested on: OVCAR-5
[12] = tested on: RXF 393
[13] = tested on: SW-620
[14] = tested on: UACC-257
[15] = tested on: HL-60

Measured: GI50

Clc1ccc(C2=Nc3ccccc3SC(c3cccs3)C2)cc1 (stereo not drawn)
inactive: [1] 14.9 µM | [2] 15.5 µM | [3] 17.4 µM | [4] 17 µM | [5] 14 µM | [6] 7.19 µM | [7] 17.5 µM | [8] 16.4 µM | [9] 18.1 µM | [10] 14 µM | [11] 14.5 µM | [12] 10.7 µM | [13] 13.1 µM | [14] 15.7 µM

CCC1c2cc3n(c(=O)c2COC1O)Cc1c-3nc2ccccc2c1Cl (stereo not drawn)
inactive: [1] 52.6 µM | [2] 23 µM | [3] > 89.5 µM | [4] 44.7 µM | [15] 26.9 µM | [5] > 75.3 µM | [6] 18.6 µM | [7] > 80.7 µM | [8] 25 µM | [9] 5.05 µM | [10] > 65.5 µM | [11] > 100 µM | [12] 73.8 µM | [13] > 100 µM | [14] > 100 µM

c1ccc2c(c1)CCc1c(-c3n[nH]c4c3CCc3ccccc3-4)n[nH]c1-2
inactive: [1] > 100 µM | [2] > 100 µM | [3] > 100 µM | [4] > 100 µM | [15] > 100 µM | [5] > 100 µM | [6] > 100 µM | [7] > 100 µM | [8] > 100 µM | [11] > 100 µM | [13] > 100 µM | [14] > 100 µM

CCOC(=O)C1=C(C)NC(=O)NC1c1ccc(OC)cc1OC (stereo not drawn)
inactive: [1] > 100 µM | [2] > 100 µM | [3] > 100 µM | [4] > 100 µM | [15] > 100 µM | [5] > 100 µM | [6] > 100 µM | [7] > 100 µM | [8] > 100 µM | [9] > 100 µM | [11] > 100 µM | [12] 72.6 µM | [13] > 100 µM | [14] > 100 µM

N=C(N)NNC(=O)CCCCCCCC(=O)NNC(=N)N
inactive: [1] > 100 µM | [2] > 100 µM | [3] 18.3 µM | [4] > 100 µM | [15] > 100 µM | [5] > 100 µM | [6] > 100 µM | [7] > 100 µM | [8] > 100 µM | [10] 33.9 µM | [11] > 100 µM | [12] > 100 µM | [13] 10.4 µM | [14] > 100 µM

Oc1cc2cc(-c3ccccc3)[nH]c2c2ccccc12
inactive: [1] > 100 µM | [2] 18.5 µM | [3] 10.4 µM | [4] 49.5 µM | [15] 8.15 µM | [5] 35.6 µM | [6] 16.1 µM | [7] 24.5 µM | [8] 20.3 µM | [9] 15.3 µM | [10] 33.4 µM | [11] > 100 µM | [12] 27.8 µM | [13] 34.4 µM | [14] 16 µM

COc1nc(OC)c2c(=O)oc(-c3ccccc3)cc2n1
inactive: [2] > 100 µM | [4] > 100 µM | [5] > 100 µM | [7] > 100 µM | [9] > 100 µM | [10] > 100 µM | [11] > 100 µM | [12] > 100 µM | [13] > 100 µM | [14] > 100 µM

CCCc1c2c([nH]c(=O)c1C)C(=O)c1[nH]c(=O)c(C)c(CCC)c1C2=O
inactive: [1] > 100 µM | [3] 25.8 µM | [4] 38.4 µM | [15] 3.65 µM | [5] 23.6 µM | [6] 8.11 µM | [7] 63.2 µM | [8] 1.66 µM | [10] 12.2 µM | [11] 35.6 µM | [12] 19.4 µM | [13] 4.78 µM | [14] 2.84 µM

N=C(N)N/N=C/c1c[nH]c2ccccc12
inactive: [2] > 100 µM | [3] > 100 µM | [4] > 100 µM | [15] > 100 µM | [5] > 100 µM | [6] > 100 µM | [7] > 100 µM | [8] > 100 µM | [9] 74.6 µM | [10] > 100 µM | [11] > 100 µM | [12] > 100 µM | [13] > 100 µM | [14] > 100 µM

CO[C@H](C(=O)O[C@H]1C(=O)N2CC[C@@H]3CCC[C@H]1C32C)c1ccccc1 (stereo partly drawn)
inactive: [2] > 100 µM | [3] > 100 µM | [4] 60.8 µM | [15] > 100 µM | [5] > 100 µM | [6] > 100 µM | [7] > 100 µM | [8] > 100 µM | [9] 66.2 µM | [10] > 100 µM | [11] > 100 µM | [12] > 100 µM | [13] > 100 µM | [14] > 100 µM

O=C1C=CC(=O)c2nc3c(cc21)CCC3
inactive: [2] 17 µM | [3] 14.5 µM | [4] > 100 µM | [15] 4.67 µM | [5] 17.8 µM | [6] 15.3 µM | [7] 15.5 µM | [8] 16.6 µM | [9] 12.6 µM | [10] 15.7 µM | [11] > 100 µM | [12] 19.7 µM | [13] 16.6 µM | [14] 19.6 µM

CCC1=CC2CN3Cn4c(c(COCc5c6n(c7ccccc57)CN5CC7C=C(CC)C5C6(C(=O)OC)C7)c5ccccc54)C(C(=O)OC)(C2)C13
inactive: [1] > 100 µM | [2] > 100 µM | [3] > 100 µM | [15] > 100 µM | [5] > 100 µM | [6] > 100 µM | [7] > 100 µM | [8] > 100 µM | [9] > 100 µM | [10] > 100 µM | [12] > 100 µM | [13] > 100 µM | [14] > 100 µM

Nc1cccc2c1C(=O)c1cccc(N)c1C2=O
inactive: [1] > 100 µM | [2] > 100 µM | [3] > 100 µM | [4] > 100 µM | [5] > 100 µM | [6] > 100 µM | [7] > 100 µM | [8] > 100 µM | [9] > 100 µM | [10] > 100 µM | [11] > 100 µM | [12] 46.3 µM | [13] > 100 µM | [14] > 100 µM

Cc1nc(-c2nc(C)c(C(=O)/C=C/c3ccc(N(C)C)cc3)s2)sc1C(=O)/C=C/c1ccc(N(C)C)cc1
inactive: [2] > 100 µM | [3] > 100 µM | [4] > 100 µM | [15] 46 µM | [5] 31 µM | [6] 38.3 µM | [7] 34.8 µM | [8] 38.5 µM | [9] 31.3 µM | [10] 46 µM | [11] > 100 µM | [12] > 100 µM | [13] 31.2 µM | [14] > 100 µM

Nc1n[n+]([O-])c2ccccc2[n+]1[O-] [TIRAPAZAMINE]
inactive: [2] 46.2 µM | [3] > 100 µM | [15] > 100 µM | [5] 75.5 µM | [6] > 100 µM | [7] > 100 µM | [8] > 100 µM | [9] 99.8 µM | [10] > 100 µM | [11] > 100 µM | [12] 57.5 µM | [13] > 100 µM | [14] 72.4 µM

CC1=C[C@H]2c3c([nH]c4ccccc34)C(c3c[nH]c4ccccc34)[C@H]2CC1 (stereo partly drawn)
inactive: [1] 15.5 µM | [2] 12.9 µM | [3] 3.41 µM | [4] 3.48 µM | [15] 4.94 µM | [5] 7.96 µM | [6] 2.19 µM | [7] 4.29 µM | [8] 6.52 µM | [9] 5.87 µM | [12] 1.74 µM | [13] 6.37 µM | [14] 13.4 µM

CCCCCCCCCCCC(=O)c1c(O)cccc1O
inactive: [2] 23.4 µM | [3] 15.3 µM | [4] 19.7 µM | [15] 19.9 µM | [5] 18.1 µM | [6] 18.8 µM | [7] 18.5 µM | [8] 18.6 µM | [9] 18.7 µM | [10] 20.4 µM | [11] 15.2 µM | [12] 24.4 µM | [13] 19.1 µM | [14] 16.7 µM

CN(C)c1ccc(C(C=C2c3ccccc3Sc3ccccc32)=C(C#N)C#N)cc1
inactive: [1] > 100 µM | [2] 65.9 µM | [3] > 100 µM | [4] > 100 µM | [15] > 100 µM | [5] > 100 µM | [6] 48.4 µM | [7] 86.7 µM | [8] 58.6 µM | [10] 16 µM | [11] > 100 µM | [12] 29 µM | [13] > 100 µM | [14] > 100 µM

COc1ccc2c(c1)CC1NC2Cc2ccccc21 (stereo not drawn)
inactive: [1] > 100 µM | [2] > 100 µM | [3] > 100 µM | [4] > 100 µM | [5] > 100 µM | [7] > 100 µM | [8] > 100 µM | [9] > 100 µM | [10] > 100 µM | [11] > 100 µM | [13] > 100 µM | [14] > 100 µM

CCOC(=O)C1=C(Nc2cccc3ccccc23)OCC1=O
inactive: [1] > 100 µM | [2] > 100 µM | [3] > 100 µM | [4] > 100 µM | [5] > 100 µM | [7] > 100 µM | [8] > 100 µM | [9] > 100 µM | [10] > 100 µM | [11] > 100 µM | [13] > 100 µM | [14] > 100 µM
